Where two headings read alike, the source gives them in different places.
Assays:
Human islets = assay: gene expression in cytokine-stimulated human islets, Taqman real time PCR; assay type: cell-based; details: TNF-α
Experimental: Human islets were incubated for 22 hours following stimulation with the inflammatory cytokines IFN-γ, TNF-α, and IL-1-β alone or in the presence of compound 1 or compound 9. Control islets were incubated for 22 hours in the absence of inflammatory cytokines or compounds. Following the incubation, gene expression for 12-LO, 15-LO, 5-LO, IL-12p40, and IFN-γ were determined using Taqman real time PCR.

human 15-lipoxygenase-2 = molecular target: T1, human 15-lipoxygenase-2 (Homo sapiens, UniProt O15296); assay: 15hLO-2 inhibition screen; assay type: biochemical; details: Table 2
T1 sequence (O15296 1-676): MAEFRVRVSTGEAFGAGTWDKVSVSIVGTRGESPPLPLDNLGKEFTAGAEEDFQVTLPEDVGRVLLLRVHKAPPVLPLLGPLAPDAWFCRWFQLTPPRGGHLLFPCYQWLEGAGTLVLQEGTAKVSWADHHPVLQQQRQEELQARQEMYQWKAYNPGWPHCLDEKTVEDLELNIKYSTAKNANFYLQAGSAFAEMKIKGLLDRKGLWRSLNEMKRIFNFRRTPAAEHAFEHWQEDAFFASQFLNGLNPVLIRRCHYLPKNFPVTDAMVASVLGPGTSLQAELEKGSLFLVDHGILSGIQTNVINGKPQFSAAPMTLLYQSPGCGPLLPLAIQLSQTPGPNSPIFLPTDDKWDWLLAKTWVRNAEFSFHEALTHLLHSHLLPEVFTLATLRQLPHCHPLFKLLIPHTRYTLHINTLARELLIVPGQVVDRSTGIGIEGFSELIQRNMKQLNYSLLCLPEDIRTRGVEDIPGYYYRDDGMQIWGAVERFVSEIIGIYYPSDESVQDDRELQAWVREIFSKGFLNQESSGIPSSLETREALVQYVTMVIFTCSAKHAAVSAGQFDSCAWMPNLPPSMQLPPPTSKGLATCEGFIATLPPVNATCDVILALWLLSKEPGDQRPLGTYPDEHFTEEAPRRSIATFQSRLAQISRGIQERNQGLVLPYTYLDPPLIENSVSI

human 5-lipoxygenase = molecular target: T2, human 5-lipoxygenase (Homo sapiens, UniProt P09917); assay: 5hLO inhibition screen; assay type: biochemical; details: Table 2
T2 sequence (P09917 1-674): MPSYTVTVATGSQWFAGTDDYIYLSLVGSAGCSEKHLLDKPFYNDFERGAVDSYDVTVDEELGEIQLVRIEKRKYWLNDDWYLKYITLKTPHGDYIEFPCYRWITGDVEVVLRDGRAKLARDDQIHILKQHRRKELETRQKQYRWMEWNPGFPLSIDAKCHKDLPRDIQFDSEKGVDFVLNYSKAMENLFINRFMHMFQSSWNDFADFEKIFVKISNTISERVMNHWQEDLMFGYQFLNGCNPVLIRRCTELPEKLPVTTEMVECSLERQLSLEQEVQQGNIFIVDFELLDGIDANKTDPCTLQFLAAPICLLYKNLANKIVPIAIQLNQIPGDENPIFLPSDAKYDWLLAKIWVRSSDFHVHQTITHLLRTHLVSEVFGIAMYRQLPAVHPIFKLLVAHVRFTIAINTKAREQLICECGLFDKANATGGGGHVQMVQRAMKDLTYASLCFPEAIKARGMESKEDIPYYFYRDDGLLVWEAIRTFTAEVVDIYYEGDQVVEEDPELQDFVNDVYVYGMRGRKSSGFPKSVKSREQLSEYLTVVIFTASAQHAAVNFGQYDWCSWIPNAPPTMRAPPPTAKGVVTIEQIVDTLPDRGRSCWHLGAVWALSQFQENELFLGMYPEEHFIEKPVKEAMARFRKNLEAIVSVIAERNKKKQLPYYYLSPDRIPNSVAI

human 12-lipoxygenase = molecular target: T3, human 12-lipoxygenase (Homo sapiens, UniProt P18054); assay: human 12-lipoxygenase inhibition (12hLO) assay, absorbance at 234 nm; assay type: biochemical
T3 sequence (P18054 1-663): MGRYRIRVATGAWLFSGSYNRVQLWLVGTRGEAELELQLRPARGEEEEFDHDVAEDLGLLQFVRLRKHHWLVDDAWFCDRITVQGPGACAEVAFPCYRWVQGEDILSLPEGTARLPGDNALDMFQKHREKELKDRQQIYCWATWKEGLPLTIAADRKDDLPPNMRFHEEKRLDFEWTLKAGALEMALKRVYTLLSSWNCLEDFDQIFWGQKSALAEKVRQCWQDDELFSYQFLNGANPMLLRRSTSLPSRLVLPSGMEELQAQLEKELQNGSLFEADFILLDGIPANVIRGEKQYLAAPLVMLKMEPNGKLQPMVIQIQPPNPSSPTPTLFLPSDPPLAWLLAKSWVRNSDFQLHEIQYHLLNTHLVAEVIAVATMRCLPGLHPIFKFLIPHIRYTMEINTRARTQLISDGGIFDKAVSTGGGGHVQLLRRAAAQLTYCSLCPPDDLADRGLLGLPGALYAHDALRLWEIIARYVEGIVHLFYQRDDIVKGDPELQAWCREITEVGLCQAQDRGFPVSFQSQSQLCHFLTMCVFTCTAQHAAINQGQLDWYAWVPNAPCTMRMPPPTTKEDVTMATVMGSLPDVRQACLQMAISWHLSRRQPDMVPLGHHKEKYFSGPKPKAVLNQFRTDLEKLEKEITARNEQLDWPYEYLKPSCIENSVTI

recombinant human cPLA2 = molecular target: T4, recombinant human cPLA2 (Homo sapiens, UniProt P47712); assay: cPLA2 enzymatic activity assay; assay type: biochemical; details: 5 min of incubation, FIG. 8
T4 sequence (P47712 1-749): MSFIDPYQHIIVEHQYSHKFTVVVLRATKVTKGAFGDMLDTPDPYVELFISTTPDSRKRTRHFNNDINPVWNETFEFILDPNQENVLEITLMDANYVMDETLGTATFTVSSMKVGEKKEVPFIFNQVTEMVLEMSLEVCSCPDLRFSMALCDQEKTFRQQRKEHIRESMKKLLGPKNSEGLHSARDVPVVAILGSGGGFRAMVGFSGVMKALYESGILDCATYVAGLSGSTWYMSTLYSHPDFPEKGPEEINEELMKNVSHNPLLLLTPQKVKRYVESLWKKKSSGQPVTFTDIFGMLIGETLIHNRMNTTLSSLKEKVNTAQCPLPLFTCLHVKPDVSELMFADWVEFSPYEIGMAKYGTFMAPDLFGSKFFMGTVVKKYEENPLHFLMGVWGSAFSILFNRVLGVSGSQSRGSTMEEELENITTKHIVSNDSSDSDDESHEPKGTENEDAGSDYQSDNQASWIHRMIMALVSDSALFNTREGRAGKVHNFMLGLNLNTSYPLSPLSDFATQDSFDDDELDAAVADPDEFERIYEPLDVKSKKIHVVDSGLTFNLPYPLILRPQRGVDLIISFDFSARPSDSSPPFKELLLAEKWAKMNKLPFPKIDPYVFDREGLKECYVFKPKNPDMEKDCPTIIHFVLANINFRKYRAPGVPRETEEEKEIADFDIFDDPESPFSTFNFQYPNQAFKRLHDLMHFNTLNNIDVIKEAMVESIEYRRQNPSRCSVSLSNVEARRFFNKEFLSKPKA
Experimental: A., et al., Biochemistry, 2011, 50: 1731-1738 with the following differences. The inhibitors in solution in DMSO were added at a final concentration of 50 μM right before the recombinant enzyme was added to initiate the reaction. After 5 min of incubation, the products of reaction were analyzed, and the results depicted in FIG. 8.

mouse plasma stability = assay type: in vitro ADME
[1] = aqueous kinetic solubility; assay type: physicochemical
[2] = in vivo PK, IP administration in CD1 mice; details: IP 30 mg/kg
[3] = mouse liver microsome stability; assay type: in vitro ADME; details: liver microsomes, read-out: mouse liver microsome stability (T1/2)
Caco-2 = Caco-2 permeability; assay type: in vitro ADME
PBS buffer stability = assay type: physicochemical
[4] = relative to control islets, IFN-γ, IL-1-β stimulation, 22 hours

## CCC(=O)NC(c1ccco1)c1cc(Cl)c2cccnc2c1O (stereo not shown) [Compound 9, N-((5-chloro-8-hydroxyquinolin-7-yl)(furan-2-yl)methyl)propionamide]
Human islets; induced by IFN-γ, IL-1-β
  reduction in IFN-γ expression: 4 fold
  reduction in IL-12p40 mRNA expression: 40 fold
Human islets; [4]
  Change in Gene Expression 5-LO: 1
  Change in Gene Expression 12-LO: 12
  Change in Gene Expression 15-LO: 4
  Change in Gene Expression IFN-γ: 4
  Change in Gene Expression IL-12p40: 3
Human 15-lipoxygenase-2
  IC50: > 150 µM
Human 5-lipoxygenase
  IC50: > 150 µM
Human 12-lipoxygenase
  selectivity for inhibition of human 12-lipoxygenase as compared with human 5-lipoxygenase, 15-lipoxygenase-1 and 15-lipoxygenase-2: exhibited selectivity
Human 12-lipoxygenase; 12hLO Inhibition, Table 1, read-out: IC50 (μM) [± SD μM]
  IC50: 1 µM

## O=c1cc(-c2ccccc2)oc2cc(O)c(O)c(O)c12 [baicalein, reference compound]
Recombinant human cPLA2
  inhibition at 50 µM: ~60%

## CCC(=O)NC(c1cccs1)c1ccc2cccnc2c1O (stereo not shown) [Compound 6, N-((8-hydroxyquinolin-7-yl)(thiophen-2-yl)methyl)propionamide]
Human 15-lipoxygenase-2
  IC50: > 150 µM
Human 5-lipoxygenase
  IC50: > 150 µM
Human 12-lipoxygenase
  selectivity for inhibition of human 12-lipoxygenase as compared with human 5-lipoxygenase, 15-lipoxygenase-1 and 15-lipoxygenase-2: exhibited selectivity
Human 12-lipoxygenase; Table 2, read-out: IC50 (μM) 12hLO
  IC50: 3.4 µM

## CC(=O)NC(c1cccs1)c1cc(Br)c2cccnc2c1O (single isomer, unassigned) [Compound 36, N-((5-bromo-8-hydroxyquinolin-7-yl)(thiophen-2-yl)methyl)acetamide]
Mouse plasma stability
  stability in mouse plasma (in words): excellent
[1]
  aqueous kinetic solubility (in words): acceptable
[2]
  crossing of the blood-brain barrier: does not efficiently cross the blood-brain barrier
[2]; brain
  t1/2 (h) (brain): 1.7 h
[2]; plasma
  t1/2 (h) (plasma): 3.5 h
  tmax (h) [plasma]: 0.25 h
[2]; mouse, brain
  Tmax: 30 min
[2]; mouse, brain/plasma, average [b/p] ratio over 8 time points (24 h period)
  Kp at 24 h: 0.01
[3]
  half-life: < 10 min
Human 5-lipoxygenase
  IC50: > 250 µM
Caco-2
  cell permeability (in words): good
Caco-2; pH 7.4
  Caco-2 (Papp 10^−6 m/s @ pH 7.4): 8.8 10^−6 m/s
Human 12-lipoxygenase; levorotatory vs dextrorotatory enantiomer
  times more potent as an inhibitor of 12-lipoxygenase than the dextrorotatory enantiomer: more than 58 times
PBS buffer stability
  stability in PBS buffer (in words): excellent
PBS buffer stability; PBS pH 7.4, 48 h
  PBS-pH 7.4 stability: % remaining after 48 h: 100%
